Columns and labels:
testosterone/E2 ratio = assay: Example 3 study in hypogonadal men: testosterone/E2 ratio (ITT); format: in vivo, human; conditions: for Testosterone/E2 Ratio % Change from Baseline to Week 2, Max / Testosterone/E2 Ratio % Change from Baseline to Week 2, Mean ± SD / Testosterone/E2 Ratio % Change from Baseline to Week 2, Median / Testosterone/E2 Ratio % Change from Baseline to Week 2, Min: Week 2, (Week minus Baseline) divided by Baseline; for Testosterone/E2 Ratio % Change from Baseline to Week 2, Max / Testosterone/E2 Ratio % Change from Baseline to Week 2, Mean ± SD / Testosterone/E2 Ratio % Change from Baseline to Week 2, Median / Testosterone/E2 Ratio % Change from Baseline to Week 2, Min / Testosterone/E2 Ratio % Change from Baseline to Week 4, Max / Testosterone/E2 Ratio % Change from Baseline to Week 4, Mean ± SD / Testosterone/E2 Ratio % Change from Baseline to Week 4, Median / Testosterone/E2 Ratio % Change from Baseline to Week 4, Min / Testosterone/E2 Ratio % Change from Baseline to Week 6, Max / Testosterone/E2 Ratio % Change from Baseline to Week 6, Mean ± SD / Testosterone/E2 Ratio % Change from Baseline to Week 6, Median / Testosterone/E2 Ratio % Change from Baseline to Week 6, Min: LOCF; for Testosterone/E2 Ratio % Change from Baseline to Week 4, Max / Testosterone/E2 Ratio % Change from Baseline to Week 4, Mean ± SD / Testosterone/E2 Ratio % Change from Baseline to Week 4, Median / Testosterone/E2 Ratio % Change from Baseline to Week 4, Min: Week 4, (Week minus Baseline) divided by Baseline; for Testosterone/E2 Ratio % Change from Baseline to Week 6, Max / Testosterone/E2 Ratio % Change from Baseline to Week 6, Mean ± SD / Testosterone/E2 Ratio % Change from Baseline to Week 6, Median / Testosterone/E2 Ratio % Change from Baseline to Week 6, Min: Week 6, (Week minus Baseline) divided by Baseline
Experimental: (§1) A randomized, double-blind, placebo controlled, parallel-group study of once-daily doses of fispemifene (100, 200, and 300 mg/day) given for 4 weeks was conducted in a population of hypogonadal men. Subjects were required to meet all of the following inclusion criteria at screening and prior to randomization to be eligible for the study:
(§2) There were 77 subjects total. The number of subjects randomized to the 100 mg fispemifene, 200 mg fispemifene, 300 mg fispemifene, and placebo arms were 21, 21, 19, and 16, respectively.
(§3) Subjects were randomly assigned to one of four treatment groups in a 1:1:1:1 ratio: • Treatment A (100 mg): fispemifene 100 mg+placebo+placebo; • Treatment B (200 mg): fispemifene 100 mg+fispemifene 100 mg+placebo; • Treatment C (300 mg): fispemifene 100 mg+fispemifene 100 mg+fispemifene 100 mg; and • Treatment D (Placebo): placebo+placebo+placebo.
(§4) Subjects took one dose (three capsules) of study medication once a day at home for 4 weeks. Capsules were to be taken in the morning immediately after breakfast, with the exception of the morning of the Week 4 visit. Capsules were not to be taken on the morning of the Week 4 visit because trough plasma levels of fispemifene were determined by a blood sample taken at this visit. Each subject was randomly assigned to treatment with one of the 3 different dose regimens of fispemifene or placebo vehicle. Each subject received a 4 week supply of study drug.
(§5) Blood samples were taken from the subjects within 1 week prior to dosing with study drug to establish baseline values; after 2 and 4 weeks of randomization; and 2 weeks after the last dose of study drug. Serum was prepared from those samples and used to determine the mean % change from baseline in total testosterone, free testosterone, SHBG (sex hormone-binding globulin), DHT (dihydrotestosterone), E2 (estradiol), LH (luteinizing hormone), FSH (follicle stimulating hormone), and inhibin B.
3. Percent change from baseline in SHBG, DHT, E2, LH, FSH, inhibin B, and testosterone/E2 ratio at Weeks 2, 4, and 6.

[1] = test system: calculated free testosterone; assay: Example 3 study in hypogonadal men: calculated serum free testosterone (ITT); format: in vivo, human
Experimental: FIG. 7 depicts a graph of the data of the study from Example 3 showing the calculated serum free testosterone level (ng/dL) over time for each of the treatment groups. The bars from left to right for each of the BL (baseline), 2 week, 4 week, and 6 week timepoints (the 6 week timepoint occurred 2 weeks after the discontinuation of study drug at week 4) correspond to the placebo, 100 mg, 200 mg, and 300 mg/day doses, respectively;
as §1, §2, §3, §4, §5
1. Percent change from baseline in free testosterone and calculated free testosterone at Weeks 2, 4, and 6;

[2] = 100 mg/day, Week 6 (2 weeks after discontinuation)
[3] = 100 mg/day, to Week 6 (2 weeks after discontinuation)
[4] = 200 mg/day, Week 6 (2 weeks after discontinuation)
[5] = 200 mg/day, to Week 6 (2 weeks after discontinuation)
[6] = 300 mg/day, Week 6 (2 weeks after discontinuation)
[7] = 300 mg/day, to Week 6 (2 weeks after discontinuation)

## OCCOCCOc1ccc(/C(=C(/CCCl)c2ccccc2)c2ccccc2)cc1 [Fispemifene, (Z)-2-{2-[4-(4-Chloro-1,2-diphenylbut-1-enyl)phenoxy]ethoxy}ethanol]
testosterone/E2 ratio; 100 mg
  Testosterone/E2 Ratio % Change from Baseline to Week 2, Max: 1.21
  Testosterone/E2 Ratio % Change from Baseline to Week 2, Mean ± SD: 0.21 ± 0.457
  Testosterone/E2 Ratio % Change from Baseline to Week 2, Median: 0.18
  Testosterone/E2 Ratio % Change from Baseline to Week 2, Min: −0.39
  Testosterone/E2 Ratio % Change from Baseline to Week 4, Max: 1.57
  Testosterone/E2 Ratio % Change from Baseline to Week 4, Mean ± SD: 0.22 ± 0.482
  Testosterone/E2 Ratio % Change from Baseline to Week 4, Median: 0.13
  Testosterone/E2 Ratio % Change from Baseline to Week 4, Min: −0.29
  Testosterone/E2 Ratio % Change from Baseline to Week 6, Max: 0.411
  Testosterone/E2 Ratio % Change from Baseline to Week 6, Mean ± SD: −0.002 ± 0.1993
  Testosterone/E2 Ratio % Change from Baseline to Week 6, Median: 0.029
  Testosterone/E2 Ratio % Change from Baseline to Week 6, Min: −0.337
  Testosterone/E2 Ratio Actual Value at Baseline (Visit 2), Max: 27.0
  Testosterone/E2 Ratio Actual Value at Baseline (Visit 2), Mean ± SD: 15.2 ± 6.39
  Testosterone/E2 Ratio Actual Value at Baseline (Visit 2), Median: 14.7
  Testosterone/E2 Ratio Actual Value at Baseline (Visit 2), Min: 5.2
testosterone/E2 ratio; 200 mg
  Testosterone/E2 Ratio % Change from Baseline to Week 2, Max: 0.93
  Testosterone/E2 Ratio % Change from Baseline to Week 2, Mean ± SD: 0.25 ± 0.418
  Testosterone/E2 Ratio % Change from Baseline to Week 2, Median: 0.19
  Testosterone/E2 Ratio % Change from Baseline to Week 2, Min: −0.29
  Testosterone/E2 Ratio % Change from Baseline to Week 4, Max: 1.08
  Testosterone/E2 Ratio % Change from Baseline to Week 4, Mean ± SD: 0.18 ± 0.387
  Testosterone/E2 Ratio % Change from Baseline to Week 4, Median: 0.17
  Testosterone/E2 Ratio % Change from Baseline to Week 4, Min: −0.34
  Testosterone/E2 Ratio % Change from Baseline to Week 6, Max: 0.937
  Testosterone/E2 Ratio % Change from Baseline to Week 6, Mean ± SD: 0.019 ± 0.3760
  Testosterone/E2 Ratio % Change from Baseline to Week 6, Median: −0.030
  Testosterone/E2 Ratio % Change from Baseline to Week 6, Min: −0.517
  Testosterone/E2 Ratio Actual Value at Baseline (Visit 2), Max: 30.2
  Testosterone/E2 Ratio Actual Value at Baseline (Visit 2), Mean ± SD: 14.2 ± 5.73
  Testosterone/E2 Ratio Actual Value at Baseline (Visit 2), Median: 14.9
  Testosterone/E2 Ratio Actual Value at Baseline (Visit 2), Min: 6.3
testosterone/E2 ratio; 300 mg
  Testosterone/E2 Ratio % Change from Baseline to Week 2, Max: 1.43
  Testosterone/E2 Ratio % Change from Baseline to Week 2, Mean ± SD: 0.21 ± 0.372
  Testosterone/E2 Ratio % Change from Baseline to Week 2, Median: 0.15
  Testosterone/E2 Ratio % Change from Baseline to Week 2, Min: −0.24
  Testosterone/E2 Ratio % Change from Baseline to Week 4, Max: 1.12
  Testosterone/E2 Ratio % Change from Baseline to Week 4, Mean ± SD: 0.33 ± 0.428
  Testosterone/E2 Ratio % Change from Baseline to Week 4, Median: 0.36
  Testosterone/E2 Ratio % Change from Baseline to Week 4, Min: −0.53
  Testosterone/E2 Ratio % Change from Baseline to Week 6, Max: 0.65
  Testosterone/E2 Ratio % Change from Baseline to Week 6, Mean ± SD: 0.12 ± 0.250
  Testosterone/E2 Ratio % Change from Baseline to Week 6, Median: 0.11
  Testosterone/E2 Ratio % Change from Baseline to Week 6, Min: −0.29
  Testosterone/E2 Ratio Actual Value at Baseline (Visit 2), Max: 23.1
  Testosterone/E2 Ratio Actual Value at Baseline (Visit 2), Mean ± SD: 11.5 ± 4.87
  Testosterone/E2 Ratio Actual Value at Baseline (Visit 2), Median: 10.6
  Testosterone/E2 Ratio Actual Value at Baseline (Visit 2), Min: 1.7
[1]; 100 mg/day, Baseline (Visit 2)
  Calculated Free Testosterone, Max: 7.54 ng/dL
  Calculated Free Testosterone, Mean ± SD: 4.81 ± 1.368 ng/dL
  Calculated Free Testosterone, Median: 4.95 ng/dL
  Calculated Free Testosterone, Min: 2.19 ng/dL
[1]; 100 mg/day, Week 2
  Calculated Free Testosterone, Max: 10.27 ng/dL
  Calculated Free Testosterone, Mean ± SD: 6.64 ± 1.732 ng/dL
  Calculated Free Testosterone, Median: 6.46 ng/dL
  Calculated Free Testosterone, Min: 4.32 ng/dL
[1]; 100 mg/day, Week 4
  Calculated Free Testosterone, Max: 9.13 ng/dL
  Calculated Free Testosterone, Mean ± SD: 6.59 ± 1.396 ng/dL
  Calculated Free Testosterone, Median: 6.63 ng/dL
  Calculated Free Testosterone, Min: 4.15 ng/dL
[1]; [2]
  Calculated Free Testosterone, Max: 7.05 ng/dL
  Calculated Free Testosterone, Mean ± SD: 5.15 ± 1.057 ng/dL
  Calculated Free Testosterone, Median: 5.10 ng/dL
  Calculated Free Testosterone, Min: 2.57 ng/dL
[1]; 100 mg/day, to Week 2
  Calculated Free Testosterone, % Change from Baseline, Max: 100%
  Calculated Free Testosterone, % Change from Baseline, Median: 36%
  Calculated Free Testosterone, % Change from Baseline, Min: 8%
[1]; 100 mg/day, to Week 4
  Calculated Free Testosterone, % Change from Baseline, Max: 157%
  Calculated Free Testosterone, % Change from Baseline, Median: 36%
[1]; [3]
  Calculated Free Testosterone, % Change from Baseline, Max: 115%
  Calculated Free Testosterone, % Change from Baseline, Median: 8%
[1]; 200 mg/day, Baseline (Visit 2)
  Calculated Free Testosterone, Max: 7.29 ng/dL
  Calculated Free Testosterone, Mean ± SD: 4.80 ± 1.143 ng/dL
  Calculated Free Testosterone, Median: 4.70 ng/dL
  Calculated Free Testosterone, Min: 2.66 ng/dL
[1]; 200 mg/day, Week 2
  Calculated Free Testosterone, Max: 8.98 ng/dL
  Calculated Free Testosterone, Mean ± SD: 6.37 ± 1.386 ng/dL
  Calculated Free Testosterone, Median: 6.21 ng/dL
  Calculated Free Testosterone, Min: 4.11 ng/dL
[1]; 200 mg/day, Week 4
  Calculated Free Testosterone, Max: 9.83 ng/dL
  Calculated Free Testosterone, Mean ± SD: 6.64 ± 1.658 ng/dL
  Calculated Free Testosterone, Median: 6.39 ng/dL
  Calculated Free Testosterone, Min: 4.05 ng/dL
[1]; [4]
  Calculated Free Testosterone, Max: 7.81 ng/dL
  Calculated Free Testosterone, Mean ± SD: 5.153 ± 1.328 ng/dL
  Calculated Free Testosterone, Median: 4.88 ng/dL
  Calculated Free Testosterone, Min: 3.60 ng/dL
[1]; 200 mg/day, to Week 2
  Calculated Free Testosterone, % Change from Baseline, Max: 124%
  Calculated Free Testosterone, % Change from Baseline, Median: 28%
  Calculated Free Testosterone, % Change from Baseline, Min: 1%
[1]; 200 mg/day, to Week 4
  Calculated Free Testosterone, % Change from Baseline, Max: 112%
  Calculated Free Testosterone, % Change from Baseline, Median: 40%
[1]; [5]
  Calculated Free Testosterone, % Change from Baseline, Max: 75%
  Calculated Free Testosterone, % Change from Baseline, Median: 6%
[1]; 300 mg/day, Baseline (Visit 2)
  Calculated Free Testosterone, Max: 7.02 ng/dL
  Calculated Free Testosterone, Mean ± SD: 4.66 ± 1.509 ng/dL
  Calculated Free Testosterone, Median: 4.94 ng/dL
  Calculated Free Testosterone, Min: 0.23 ng/dL
[1]; 300 mg/day, Week 2
  Calculated Free Testosterone, Max: 9.79 ng/dL
  Calculated Free Testosterone, Mean ± SD: 6.43 ± 2.152 ng/dL
  Calculated Free Testosterone, Median: 7.25 ng/dL
  Calculated Free Testosterone, Min: 0.14 ng/dL
[1]; 300 mg/day, Week 4
  Calculated Free Testosterone, Max: 10.31 ng/dL
  Calculated Free Testosterone, Mean ± SD: 7.33 ± 2.589 ng/dL
  Calculated Free Testosterone, Median: 8.40 ng/dL
  Calculated Free Testosterone, Min: 0.10 ng/dL
[1]; [6]
  Calculated Free Testosterone, Max: 8.02 ng/dL
  Calculated Free Testosterone, Mean ± SD: 5.29 ± 1.791 ng/dL
  Calculated Free Testosterone, Median: 5.44 ng/dL
  Calculated Free Testosterone, Min: 0.22 ng/dL
[1]; 300 mg/day, to Week 2
  Calculated Free Testosterone, % Change from Baseline, Max: 83%
  Calculated Free Testosterone, % Change from Baseline, Median: 40%
[1]; 300 mg/day, to Week 4
  Calculated Free Testosterone, % Change from Baseline, Max: 133%
  Calculated Free Testosterone, % Change from Baseline, Median: 59%
[1]; [7]
  Calculated Free Testosterone, % Change from Baseline, Max: 65%
  Calculated Free Testosterone, % Change from Baseline, Median: 10%

— patent US10500166B2, “Methods for the treatment of erectile dysfunction using fispemifene” (QUATRX PHARMACEUTICALS, priority 2007, dated 2019)
